Test results: US20250154140A1 (Sunnybrook Research Institute, priority 2022, published 2025)

Biological target: BAX (Homo sapiens, UniProt Q07812)
Assay: SMAC mCherry assay in permeabilized Bax-/- Bak-/- BMK cells with recombinant Bax and cBid
Type: cell-based, mouse
Parameters: made in house; host or cells: Escherichia coli BL21-AI
Settings: 20 nM Bax, 0.5 nM cBid, 60-80 minutes; read-out: SMAC mCherry I.D IC50
Description: Bax−/− Bak−/− double-knockout Baby Mouse Kidney (BMK) cells stably expressing a SMAC-(1-56)-mCherry fusion protein were cultured in DMEM complete (DMEM supplemented with 10% FBS and 1× Penicillin-Streptomycin) in 10 cm diameter tissue-culture treated dishes at 37° C. in a humidified incubator with 5% CO2 in air. Cells were washed with PBS, incubated with 1×Trypsin and resuspended in DMEM complete. Detached cells were seeded at 6000 cells per well in 50 uL DMEM complete into a 384 well Perkin-Elmer Phenoplate, incubated at room-temperature for 30 minutes followed by incubation overnight at 37° C. in a humidified incubator with 5% CO2 in air. Recombinant Bax and recombinant cBid were quickly thawed between fingers and 25 mM compound stocks in DMSO were thawed at room temperature. An 8 point titration curve of each compound was created in a 384-well source plate containing Trehalose-Hepes Buffer (THB, 135 mM trehalose, 50 mM KCl, 10 mM HEPES-KOH pH 7.4, 5 mM succinate, 20 uM EDTA, 20 uM EGTA, 0.1% BSA) supplemented with 1/1000 DRAQ5, 0.0025% digitonin, 20 nM Bax and 0.5 nM cBid. The source plate also contained control wells with THB supplemented with 1/1000 DRAQ5, 0.0025% digitonin plus 20 nM Bax (negative control) or 20 nM Bax and 0.5 nM cBid (positive control). Using the Vantage automated liquid handler, DMEM complete media was removed from the cells growing in the 384 well Phenoplate. The cells were washed 2× with 30 uL THB and then 25 uL from the 384 well source plate containing THB proteins and compounds was transferred to the cells growing in the 384 well plate. The cells were incubated for 60-80 minutes at 37 C in a humidified incubator with 5% CO2 in air and then imaged on the Opera Phenix Microscope. Two image channels were acquired: 1) DRAQ5 channel, to visualize nuclei and aid in cell segmentation and 2) SMAC-mCherry channel to visualize mitochondria that retain SMAC-mCherry. Data was processed using PerkinElmer Harmony software where the cells were segmented using the DRAQ5 channel and the mean intensity of SMAC-mCherry for each cell was calculated. The single-cell lobject level data was exported and then analyzed using R code. A per cell SMAC-mCherry intensity cutoff was calculated as 1.33 times the mean per cell SMAC-mCherry intensity of the THB+Bax control. Cells with a SMAC-mCherry intensity below or equal to the cutoff were scored as “released”. The percentage SMAC-mCherry release was calculated as the number of cells scored as “released” divided by the total amount of cells multiplied by 100. Dose-response curves were fit to a 4-parameter log-logistic model to determine the IC50 value for each compound.

Chain of BAX (Q07812 whole entry): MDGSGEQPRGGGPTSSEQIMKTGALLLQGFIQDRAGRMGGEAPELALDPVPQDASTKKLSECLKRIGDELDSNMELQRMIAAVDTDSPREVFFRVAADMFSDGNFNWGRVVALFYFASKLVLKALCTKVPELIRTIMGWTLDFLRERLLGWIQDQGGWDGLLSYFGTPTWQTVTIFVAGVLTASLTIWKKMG

Row | SMILES | IC50
1 | O=C(CCCN1CCCCC1)Nc1ccc2ccnc(Nc3ccc(F)c(Cl)c3)c2c1 [Compound 1-18, N-(1-((3-chloro-4-fluorophenyl)amino)isoquinolin-7-yl)-4-(piperidin-1-yl)butanamide] | 0.1 to 10 µM
2 | COc1cc2ccnc(Nc3ccccc3)c2cc1NC(=O)CCCN1CCCCC1 [Compound 1-15, N-(6-methoxy-1-(phenylamino)isoquinoin-l7-yl)-4-(piperidin-1-yl)butanamide] | 51 to 100 µM
3 | COc1cc2ccnc(Nc3cccc(Cl)c3)c2cc1NC(=O)CCCN1CCCCC1 [Compound 1-13, N-(1-((3-chlorophenyl)amino)-6-methoxyisoquinolin-7-yl)-4-(piperidin-1-yl)butanamide] | 11 to 50 µM
4 | COc1cc2ccnc(Nc3ccc(F)cc3)c2cc1NC(=O)CCCN1CCCCC1 [Compound 1-12, N-(1-((4-fluorophenyl)amino)-6-methoxyisoquinolin-7-yl)-4-(piperidin-1-yl)butanamide] | 51 to 100 µM
5 | COc1cc2ccnc(Nc3ccc(F)c(Cl)c3)c2cc1NC(=O)CCCN1CCC(F)(F)CC1 [Compound 1-8, N-(1-((3-chloro-4-fluorophenyl)amino)-6-methoxyisoquinolin-7-yl)-4-(4,4-difluoropiperidin-1-yl)butanamide] | 0.1 to 10 µM
6 | COc1cc2ccnc(Nc3ccc(F)c(Cl)c3)c2cc1NC(=O)CCCN1CCCC1 [Compound 1-4] | 0.1 to 10 µM
7 | COc1cccc(Nc2nccc3cc(OC)c(NC(=O)CCCN4CCCCC4)cc23)c1 [Compound 1-10, N-(6-methoxy-1-((3-methoxyphenyl)amino)isoquinolin-7-yl)-4-(piperidin-1-yl)butanamide] | > 100 µM
8 | COc1cc2ccnc(Nc3ccc(C)c(Cl)c3)c2cc1NC(=O)CCCN1CCCCC1 [Compound 1-21, N-(1-((3-chloro-4-methylphenyl)amino)-6-methoxyisoquinolin-7-yl)-4-(piperidin-1-yl)butanamide] | 0.1 to 10 µM
9 | COc1cc2ccnc(Nc3ccc(F)c(Cl)c3)c2cc1NC(=O)CCN1CCCCC1 [Compound 1-3, N-(1-((3-chloro-4-fluorophenyl)amino)-6-methoxyisoquinolin-7-yl)-3-(piperidin-1-yl)propanamide] | 11 to 50 µM
10 | COc1cc2ccnc(Nc3cc(Cl)c(F)c(Cl)c3)c2cc1NC(=O)CCCN1CCCCC1 [Compound 1-23, N-(1-((3,5-dichloro-4-fluorophenyl)amino)-6-methoxyisoquinolin-7-yl)-4-(piperidin-1-yl)butanamide] | 0.1 to 10 µM
11 | COc1cc2ccnc(Nc3ccc(F)c(Cl)c3)c2cc1NC(=O)CCCN1C[C@@H](C)O[C@@H](C)C1 [Compound 1-5, N-(1-((3-chloro-4-fluorophenyl)amino)-6-methoxyisoquinolin-7-yl)-4-((2S,6R)-2,6-dimethylmorpholino)butanamide] | 0.1 to 10 µM
12 | COc1cc2ccnc(Nc3cccc(C)c3)c2cc1NC(=O)CCCN1CCCCC1 [Compound 1-11, N-(6-methoxy-1-(m-tolylamino)isoquinolin-7-yl)-4-(piperidin-1-yl)butanamide] | 51 to 100 µM
13 | COc1cc2ccnc(Nc3ccc(F)c(Cl)c3)c2cc1NC(=O)CCCCN1CCCCC1 [Compound 1-2, N-(1-((3-chloro-4-fluorophenyl)amino)-6-methoxyisoquinolin-7-yl)-5-(piperidin-1-yl)pentanamide] | 0.1 to 10 µM
14 | COc1cc2ccnc(Nc3ccc(F)c(Cl)c3)c2cc1NC(=O)CCCN1CCN(C)CC1 [Compound 1-7, N-(1-((3-chloro-4-fluorophenyl)amino)-6-methoxyisoquinolin-7-yl)-4-(4-methylpiperazin-1-yl)butanamide] | 0.1 to 10 µM
15 | COc1cc(Nc2nccc3cc(OC)c(NC(=O)CCCN4CCCCC4)cc23)ccc1F [Compound 1-22, N-(1-((4-fluoro-3-methoxyphenyl)amino)-6-methoxyisoquinolin-7-yl)-4-(piperidin-1-yl)butanamide] | 11 to 50 µM

Second part, the compound after the results:

Row | IC50 | SMILES
16 | 0.1 to 10 µM | O=C(CCCN1CCCCC1)Nc1ccc2ccnc(Nc3ccc(Cl)c(Cl)c3)c2c1 [Compound 1-35, N-(1-((3,4-dichlorophenyl)amino)isoquinolin-7-yl)-4-(piperidin-1-yl)butanamide]
17 | 0.1 to 10 µM | O=C(CCCN1CCCCC1)Nc1ccc2ccnc(Nc3ccc(F)c(Cl)c3F)c2c1 [Compound 1-40, N-(1-((3-chloro-2,4-difluorophenyl)amino)isoquinolin-7-yl)-4-(piperidin-1-yl)butanamide]
18 | 11 to 50 µM | COc1ccc(Nc2nccc3cc(OC)c(NC(=O)CCCN4CCCCC4)cc23)cc1Cl [Compound 1-24, N-(1-((3-chloro-4-methoxyphenyl)amino)-6-methoxyisoquinolin-7-yl)-4-(piperidin-1-yl)butanamide]
19 | 0.1 to 10 µM | O=C(CCCN1CCCCC1)Nc1ccc2ccnc(Nc3ccc(Cl)c(Cl)c3F)c2c1 [Compound 1-34, N-(1-((3,4-dichloro-2-fluorophenyl)amino)isoquinolin-7-yl)-4-(piperidin-1-yl)butanamide]
20 | 0.1 to 10 µM | O=C(CCCN1CCCCC1)Nc1ccc2ccnc(Nc3ccc(F)c(C(F)(F)F)c3)c2c1 [Compound 1-33, N-(1-((4-fluoro-3-(trifluoromethyl)phenyl)amino)isoquinolin-7-yl)-4-(piperidin-1-yl)butanamide]
21 | 11 to 50 µM | COc1cc2ccnc(Nc3ccc(F)c(Cl)c3)c2cc1N(C)C(=O)CCCN1CCCCC1 [Compound 1-31, N-(1-((3-chloro-4-fluorophenyl)amino)-6-methoxyisoquinolin-7-yl)-N-methyl-4-(piperidin-1-yl)butanamide]
22 | 0.1 to 10 µM | COc1cc2ccnc(Nc3ccc(Cl)c(Cl)c3)c2cc1NC(=O)CCCN1CCCCC1 [Compound 1-27, N-(1-((3,4-dichlorophenyl)amino)-6-methoxyisoquinolin-7-yl)-4-(piperidin-1-yl)butanamide]
23 | 11 to 50 µM | CCc1cc(Nc2nccc3cc(OC)c(NC(=O)CCCN4CCCCC4)cc23)ccc1F [Compound 1-28, N-(1-((3-ethyl-4-fluorophenyl)amino)-6-methoxyisoquinolin-7-yl)-4-(piperidin-1-yl)butanamide]
24 | 0.1 to 10 µM | O=C(CCCN1CCCCC1)Nc1ccc2ccnc(Nc3cc(Cl)c(F)c(Cl)c3)c2c1 [Compound 1-36, N-(1-((3,5-dichloro-4-fluorophenyl)amino)isoquinolin-7-yl)-4-(piperidin-1-yl)butanamide]
25 | 11 to 50 µM | COc1cc2ccnc(Nc3ccc(F)cc3Cl)c2cc1NC(=O)CCCN1CCCCC1 [Compound I-19, N-(1-((2-chloro-4-fluorophenyl)amino)-6-methoxyisoquinolin-7-yl)-4-(piperidin-1-yl)butanamide]
26 | 0.1 to 10 µM | COc1cc2ccnc(Nc3cc(F)cc(Cl)c3)c2cc1NC(=O)CCCN1CCCCC1 [Compound 1-25, N-(1-((3-chloro-5-fluorophenyl)amino)-6-methoxyisoquinolin-7-yl)-4-(piperidin-1-yl)butanamide]
27 | 0.1 to 10 µM | O=C(CCCN1CCCCC1)Nc1ccc2ccnc(Nc3cccc(Cl)c3F)c2c1 [Compound 1-39, N-(1-((3-chloro-2-fluorophenyl)amino)isoquinolin-7-yl)-4-(piperidin-1-yl)butanamide]
28 | 0.1 to 10 µM | Cc1ccc(Nc2nccc3ccc(NC(=O)CCCN4CCCCC4)cc23)cc1Cl [Compound 1-32, N-(1-((3-chloro-4-methylphenyl)amino)isoquinolin-7-yl)-4-(piperidin-1-yl)butanamide]
29 | 11 to 50 µM | COc1cc2ccnc(Nc3ccc(F)c(Cl)c3)c2cc1NC(=O)CCN1CCCC1 [Compound 1-42, N-(1-((3-chloro-4-fluorophenyl)amino)-6-methoxyisoquinolin-7-yl)-3-(pyrrolidin-1-yl)propanamide]
30 | 0.1 to 10 µM | O=C(CCCN1CCCCC1)Nc1ccc2ccnc(Nc3cc(Cl)c(Cl)cc3F)c2c1 [Compound 1-38, N-(1-((4,5-dichloro-2-fluorophenyl)amino)isoquinolin-7-yl)-4-(piperidin-1-yl)butanamide]
31 | 0.1 to 10 µM | COc1cc(NC(=O)CCCN2CCCCC2)cc2c(Nc3ccc(F)c(Cl)c3)nccc12 [Compound 1-29, N-(1-((3-chloro-4-fluorophenyl)amino)-5-methoxyisoquinolin-7-yl)-4-(piperidin-1-yl)butanamide]
32 | 0.1 to 10 µM | O=C(CCCN1CCCCC1)Nc1cc2c(Nc3ccc(F)c(Cl)c3)nccc2cc1Cl [Compound 1-26, N-(6-chloro-1-((3-chloro-4-fluorophenyl)amino)isoquinolin-7-yl)-4-(piperidin-1-yl)butanamide]
